Assay results as given in US12329801B2, “Regenerative polypeptides and uses thereof” (JUVENA THERAPEUTICS, INC., priority 2021, dated 2025).

Tests used:
human myoblast cells = assay: Differentiation of human myoblast cells (MyHC immunostaining, percentage area); assay type: cell-based; conditions: Fc4 fusions, 96 hours with daily media change, concentration not printed (FIG. 1B)
Experimental: (§1) FIG. 1A: The suspension CHO cells were transiently transfected with the IGF2-hFcm encoding plasmid. IGF2-hFcm was affinity-purified by Protein A membrane column. The purified IGF2-hFcm was added into the culture of human myoblast cells for 96 hours. Myosin heavy chain (MyHC) was immunostained and imaged by a fluorescence microscope.
as §1, with “1B:” for “1A:”, “IGF2-LhFc4” for “IGF2-hFcm”, “hours with daily media change.” for “hours.”
FIG. 2A: The suspension CHO cells were transiently transfected with the HSA-L-IGF2R61A encoding plasmid. HSA-L-IGF2R61A was affinity-purified by Protein A membrane column. […] Myosin heavy chain (MyHC) was immunostained and imaged by a fluorescence microscope.
Suspension CHO cells were transiently transfected with the IGF2-hFcm encoding plasmid. […] After quantification of the stained MyHC, the percentage area of MyHC was calculated as the percent of pixels within the field that are illuminated above background in the stained channel. […] Significance was determined by a p-value less than 0.05 by the one-way ANOVA Tukey Honest Significant Difference test.

[1] = Murine pharmacokinetics, intravenous, ELISA, non-compartment analysis; assay type: in vivo, mice; conditions: mice
Experimental: Murine pharmacokinetics (PK) represents the absorption, distribution, metabolism, and elimination of drugs from the body. The pharmacokinetic profile of the therapeutic polypeptides were determined in mice (10-12 weeks old). Mice were fed ad libitum and housed under controlled conditions of lighting (12-hour light/12-hour dark) and temperature (22-24° C.). Mice were allowed to acclimate for 3 days prior to the initiation of the experiment. Intravenous (IV) injection in 10-12 weeks old mice. Engineered mitogenic polypeptides concentrations in the samples were measured by ELISA. Various pharmacokinetics will be calculated as well as the absorption/elimination dynamics following different routes of administration.

[2] = test system: healthy human muscle precursors from person; assay: In vitro myogenesis assay, healthy human muscle precursors; assay type: cell-based
Experimental: (§2) Human muscle progenitor cells (early passage myoblasts) were cultured and expanded in growth medium: Ham's F-10 (Gibco), 20% Bovine Growth Serum (Hyclone), 5 ng/mL FGF2 and 1% penicillin-streptomycin on Matrigel coated plates (1:300 matrigel: PBS), at 37° C. and 5% CO2. For experimental conditions, cells were plated at 40,000 cells/well on Matrigel coated 8-well chamber slides in 250-500 μL medium per well (1:100 matrigel: PBS) in human fusion medium: DMEM (Gibco)+2% horse serum (Hyclone). One hour after plating, human myoblasts were treated with 50% respective media: […] myoblasts were cultured for 24 hours in the above conditions, at 37° C. in 10% CO2 incubator. BrdU (300 uM) in DMSO was added for 2 hours prior to fixation with cold 70% ethanol and stored at 4° C. until staining.
(§3) Following permeabilization in PBS+0.25% t-Octylphenoxypolyethoxyethanol (Triton™ X-100), antigen retrieval was performed. Primary staining was performed with primary antibodies including: a species-specific monoclonal antibody for mouse anti-embryonic Myosin Heavy Chain (eMyHC, hybridoma clone 1.652, Developmental Studies Hybridoma Bank) and Rat-anti-BrdU (Abcam Inc. ab6326). […]

[3] = test system: human DM1 muscle precursors from person; assay: In vitro myogenesis assay, human DM1 muscle precursors; assay type: cell-based; conditions: across a range of test article concentrations
Experimental: as §2, §3

[4] = test system: female C57/BL6 (NIA) mice (20 months of age); assay: Acute injury model (cardiotoxin in tibialis anterior); assay type: in vivo; conditions: IM 0.4 ug/20 μL every other day, vs vehicle (HSA)
Experimental: The acute injury model of Example 18 was used. […] female C57/BL6 (NIA) mice (20 months of age) were injected intramuscularly (IM) in each tibialis anterior with cardiotoxin at day one (10 ug/20 μL) and from day two the mice were given IM injections every other day with 0.4 ug/20 μL of 6HIS-HSA-IGF2R61A (SEQ ID NO: 34) or vehicle (0.4 ug/20 μL of HSA).

DM1 human myoblast = assay: Myogenic gene expression fold change in DM1 human myoblast; assay type: cell-based; conditions: 48 h; BMP7 50 ng/mL, Butyrate 100 nM, IGF2 200 ng/mL
Experimental: Myoblasts were cultured 48 h in the presence of factors (BMP7 50 ng/mL, Butyrate 100 nM, IGF2 200 ng/mL).
Myoblasts were cultured 96 h in the presence of factors (IGF2 200 ng/ml). […] Myoblasts were cultured 48 h in the presence of factors (IGF2 200 ng/mL).
IGF2 was tested individually for its ability to promote proliferation and/or fusion of human muscle progenitor cells from an individual with myotonic dystrophy type 1 (hMD)—a muscular dystrophy caused by mutations in the DMPK1 gene. The effect of IGF2 on myogenic activity was assayed in biological triplicate across a range of concentrations centered around expected physiological levels by adding each factor to hMD myoblasts for 72 hours with daily media changes (DMEM +2% horse serum) and a second pulse of factors at the first media change. After 72 or 96 hours, cells were pulsed for 2-5 hours with EdU (30 uM), ethanol fixed, stained with Hoescht 3342, immunostained for proliferation—as measured by the percent of cells staining positive for EdU (% EdU)-, and immunostained for differentiation—as measured by the increase in cellular area staining positive for embryonic myosin heavy chain (% eMyHC) relative to the negative controls, which received media and vehicle only. Wells were imaged on a Keyence BZ-100 at 4×, the images quantified in Cell Profiler, and the statistics were computed in R. Additionally, RNA was extracted from myoblast and select transcript abundances quantified by qPCR.

Compound: IGF2-hFc4: Human IGF2-hFc4, SEQ ID NO: 39
- % MyHC (human myoblast cells): 6.901%

Compound: HSA-IGF2R61A: His tagged HSA fusion IGF2 R61A mutant with a long linker, SEQ ID NO: 34
- serum half-life compared to the natural sequence of IGF2 [1]: significantly improved serum half-life
- activity relative to IGF2 at equimolar concentrations ([2]; across a range of test article concentrations): equal activity
- activity relative to HSA-IGF2 at equimolar concentrations ([2]; before or after size exclusion purification via HPLC): equal or increased activity
- activity relative to IGF2 at equimolar concentrations [3]: equal activity
- force production (max contraction rate) [4]: increased force production
- force production (specific force-frequency) [4]: increased force production
- muscle fatigue (specific fatigue index) [4]: reduced muscle fatigue
- muscle mass [4]: increased muscle mass
- regenerative index (number of new fibers per square millimeter) [4]: increased regenerative index
- relation rates [4]: improved relation rates

Compound: CCCC(=O)[O-].[Na+] [NaBut, sodium butyrate]
- MYF5 expression fold change compared to FM (vehicle) (DM1 human myoblast): 1.128
- MYOD1 expression fold change compared to FM (vehicle) (DM1 human myoblast): 1.095
- MYOG expression fold change compared to FM (vehicle) (DM1 human myoblast): 1.020
